Test results as given in ChEMBL document CHEMBL6096675 (J Med Chem, 2025).

How the values were obtained:
[1] = biological target: von Hippel-Lindau disease tumor suppressor/SWI/SNF-related matrix-associated actin-dependent regulator of chromatin subfamily A member 4 (Homo sapiens, UniProt P51532+P40337); test: PROTAC activity at SMARCA4/VHL1 in human HeLa cells assessed as protein degradation by Nano-Glo HiBiT lytic detection assay; assay type: cell-based
[2] = biological target: von Hippel-Lindau disease tumor suppressor/SWI/SNF-related matrix-associated actin-dependent regulator of chromatin subfamily A member 2 (Homo sapiens, UniProt P51531+P40337); test: PROTAC activity at SMARCA2/VHL1 in human HeLa cells assessed as protein degradation by Nano-Glo HiBiT lytic detection assay; assay type: cell-based
[3] = PROTAC activity at SMARCA2/E3 ubiquitin ligase (unknown origin) assessed as protein degradation; set-up: species or system Homo sapiens
[4] = PROTAC activity at SMARCA4/E3 ubiquitin ligase (unknown origin) assessed as protein degradation; set-up: species or system Homo sapiens
Homo sapiens [5] = organism: Homo sapiens; test: Selectivity ratio, ratio of DC50 for PROTAC activity at SMARCA2/E3 ubiquitin ligase (unknown origin) to DC50 for PROTAC activity at SMARCA4/E3 ubiquitin ligase (unknown origin
Homo sapiens [6] = organism: Homo sapiens; test: PROTAC activity at SMARCA2/E3 ubiquitin ligase (unknown origin) assessed as maximal protein degradation
Homo sapiens [7] = organism: Homo sapiens; test: PROTAC activity at SMARCA4/E3 ubiquitin ligase (unknown origin) assessed as maximal protein degradation
[8] = Plasma concentration in SCID mouse xenografted with human NCI-H838 cells at 10 mg/kg, iv measured after 24 hrs by LC-MS/MS analysis; assay type: ADME, organism-based
[9] = Drug uptake in tumor of human NCI-H838 cells xenografted SCID mouse model at 10 mg/kg, iv measured after 96 hrs by LC-MS/MS analysis; assay type: ADME, organism-based, Neoplasm; conditions: read-out: Drug uptake
[10] = Drug uptake in tumor of human NCI-H838 cells xenografted SCID mouse model at 10 mg/kg, iv measured after 24 hrs by LC-MS/MS analysis; assay type: ADME, organism-based, Neoplasm; conditions: read-out: Drug uptake
[11] = Plasma concentration in SCID mouse xenografted with human NCI-H838 cells at 10 mg/kg, iv measured after 96 hrs by LC-MS/MS analysis; assay type: ADME, organism-based
[12] = biological target: SWI/SNF-related matrix-associated actin-dependent regulator of chromatin subfamily A member 2 (Homo sapiens, UniProt P51531); test: Inhibition of SMARCA2 (unknown origin)
[13] = biological target: SWI/SNF-related matrix-associated actin-dependent regulator of chromatin subfamily A member 4 (Homo sapiens, UniProt P51532); test: Inhibition of SMARCA4 (unknown origin)
Sequence of SWI/SNF-related matrix-associated actin-dependent regulator of chromatin subfamily A member 4 (P51532 whole entry): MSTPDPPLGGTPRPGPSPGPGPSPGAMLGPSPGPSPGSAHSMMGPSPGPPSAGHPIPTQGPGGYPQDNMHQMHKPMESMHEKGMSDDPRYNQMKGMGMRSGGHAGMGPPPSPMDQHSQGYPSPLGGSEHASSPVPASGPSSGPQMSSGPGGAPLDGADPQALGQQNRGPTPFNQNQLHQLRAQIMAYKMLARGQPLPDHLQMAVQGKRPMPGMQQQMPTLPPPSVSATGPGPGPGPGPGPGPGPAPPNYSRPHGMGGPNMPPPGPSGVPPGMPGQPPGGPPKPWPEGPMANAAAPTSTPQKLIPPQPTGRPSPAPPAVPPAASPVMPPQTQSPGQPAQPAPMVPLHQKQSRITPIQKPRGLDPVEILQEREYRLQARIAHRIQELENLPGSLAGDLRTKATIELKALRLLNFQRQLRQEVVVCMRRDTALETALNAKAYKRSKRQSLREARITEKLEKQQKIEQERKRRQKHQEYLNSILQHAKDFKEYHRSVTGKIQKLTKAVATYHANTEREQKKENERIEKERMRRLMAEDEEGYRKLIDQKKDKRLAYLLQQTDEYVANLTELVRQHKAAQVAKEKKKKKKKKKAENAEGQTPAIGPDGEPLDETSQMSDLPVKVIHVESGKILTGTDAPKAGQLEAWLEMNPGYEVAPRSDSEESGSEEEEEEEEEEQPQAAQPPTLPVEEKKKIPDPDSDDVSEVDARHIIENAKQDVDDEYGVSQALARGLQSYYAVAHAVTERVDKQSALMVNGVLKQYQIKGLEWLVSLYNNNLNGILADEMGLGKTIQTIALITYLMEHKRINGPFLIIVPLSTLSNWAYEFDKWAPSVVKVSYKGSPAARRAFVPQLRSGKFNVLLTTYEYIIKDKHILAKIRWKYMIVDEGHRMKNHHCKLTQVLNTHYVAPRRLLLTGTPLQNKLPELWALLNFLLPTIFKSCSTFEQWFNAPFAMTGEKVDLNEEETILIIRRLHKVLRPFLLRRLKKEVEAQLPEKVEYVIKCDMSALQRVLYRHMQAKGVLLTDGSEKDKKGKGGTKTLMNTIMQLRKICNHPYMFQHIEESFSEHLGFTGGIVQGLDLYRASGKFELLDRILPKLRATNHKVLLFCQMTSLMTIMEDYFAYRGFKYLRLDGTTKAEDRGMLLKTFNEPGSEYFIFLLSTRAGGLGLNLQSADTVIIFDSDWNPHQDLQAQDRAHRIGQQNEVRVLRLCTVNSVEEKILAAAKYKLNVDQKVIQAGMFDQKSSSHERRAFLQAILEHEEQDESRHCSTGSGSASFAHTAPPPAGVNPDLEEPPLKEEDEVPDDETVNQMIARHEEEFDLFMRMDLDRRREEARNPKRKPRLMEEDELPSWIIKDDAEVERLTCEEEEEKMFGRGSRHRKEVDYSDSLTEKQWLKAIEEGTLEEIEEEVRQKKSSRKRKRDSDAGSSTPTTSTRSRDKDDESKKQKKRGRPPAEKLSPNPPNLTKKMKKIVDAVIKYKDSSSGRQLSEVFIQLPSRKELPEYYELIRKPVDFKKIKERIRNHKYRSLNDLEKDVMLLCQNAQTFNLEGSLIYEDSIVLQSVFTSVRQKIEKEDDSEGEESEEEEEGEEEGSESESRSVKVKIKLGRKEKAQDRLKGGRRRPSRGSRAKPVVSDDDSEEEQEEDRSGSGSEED

Sequence of von Hippel-Lindau disease tumor suppressor/SWI/SNF-related matrix-associated actin-dependent regulator of chromatin subfamily A member 4 (P51532 whole entry): as above
Sequence of von Hippel-Lindau disease tumor suppressor/SWI/SNF-related matrix-associated actin-dependent regulator of chromatin subfamily A member 4 (P40337 whole entry): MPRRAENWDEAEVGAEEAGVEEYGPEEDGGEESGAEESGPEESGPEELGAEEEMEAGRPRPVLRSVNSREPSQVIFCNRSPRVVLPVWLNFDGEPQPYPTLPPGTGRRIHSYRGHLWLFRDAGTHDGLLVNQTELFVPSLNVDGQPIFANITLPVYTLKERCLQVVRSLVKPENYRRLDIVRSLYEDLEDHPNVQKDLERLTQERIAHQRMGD
Sequence of von Hippel-Lindau disease tumor suppressor/SWI/SNF-related matrix-associated actin-dependent regulator of chromatin subfamily A member 2 (P51531 whole entry): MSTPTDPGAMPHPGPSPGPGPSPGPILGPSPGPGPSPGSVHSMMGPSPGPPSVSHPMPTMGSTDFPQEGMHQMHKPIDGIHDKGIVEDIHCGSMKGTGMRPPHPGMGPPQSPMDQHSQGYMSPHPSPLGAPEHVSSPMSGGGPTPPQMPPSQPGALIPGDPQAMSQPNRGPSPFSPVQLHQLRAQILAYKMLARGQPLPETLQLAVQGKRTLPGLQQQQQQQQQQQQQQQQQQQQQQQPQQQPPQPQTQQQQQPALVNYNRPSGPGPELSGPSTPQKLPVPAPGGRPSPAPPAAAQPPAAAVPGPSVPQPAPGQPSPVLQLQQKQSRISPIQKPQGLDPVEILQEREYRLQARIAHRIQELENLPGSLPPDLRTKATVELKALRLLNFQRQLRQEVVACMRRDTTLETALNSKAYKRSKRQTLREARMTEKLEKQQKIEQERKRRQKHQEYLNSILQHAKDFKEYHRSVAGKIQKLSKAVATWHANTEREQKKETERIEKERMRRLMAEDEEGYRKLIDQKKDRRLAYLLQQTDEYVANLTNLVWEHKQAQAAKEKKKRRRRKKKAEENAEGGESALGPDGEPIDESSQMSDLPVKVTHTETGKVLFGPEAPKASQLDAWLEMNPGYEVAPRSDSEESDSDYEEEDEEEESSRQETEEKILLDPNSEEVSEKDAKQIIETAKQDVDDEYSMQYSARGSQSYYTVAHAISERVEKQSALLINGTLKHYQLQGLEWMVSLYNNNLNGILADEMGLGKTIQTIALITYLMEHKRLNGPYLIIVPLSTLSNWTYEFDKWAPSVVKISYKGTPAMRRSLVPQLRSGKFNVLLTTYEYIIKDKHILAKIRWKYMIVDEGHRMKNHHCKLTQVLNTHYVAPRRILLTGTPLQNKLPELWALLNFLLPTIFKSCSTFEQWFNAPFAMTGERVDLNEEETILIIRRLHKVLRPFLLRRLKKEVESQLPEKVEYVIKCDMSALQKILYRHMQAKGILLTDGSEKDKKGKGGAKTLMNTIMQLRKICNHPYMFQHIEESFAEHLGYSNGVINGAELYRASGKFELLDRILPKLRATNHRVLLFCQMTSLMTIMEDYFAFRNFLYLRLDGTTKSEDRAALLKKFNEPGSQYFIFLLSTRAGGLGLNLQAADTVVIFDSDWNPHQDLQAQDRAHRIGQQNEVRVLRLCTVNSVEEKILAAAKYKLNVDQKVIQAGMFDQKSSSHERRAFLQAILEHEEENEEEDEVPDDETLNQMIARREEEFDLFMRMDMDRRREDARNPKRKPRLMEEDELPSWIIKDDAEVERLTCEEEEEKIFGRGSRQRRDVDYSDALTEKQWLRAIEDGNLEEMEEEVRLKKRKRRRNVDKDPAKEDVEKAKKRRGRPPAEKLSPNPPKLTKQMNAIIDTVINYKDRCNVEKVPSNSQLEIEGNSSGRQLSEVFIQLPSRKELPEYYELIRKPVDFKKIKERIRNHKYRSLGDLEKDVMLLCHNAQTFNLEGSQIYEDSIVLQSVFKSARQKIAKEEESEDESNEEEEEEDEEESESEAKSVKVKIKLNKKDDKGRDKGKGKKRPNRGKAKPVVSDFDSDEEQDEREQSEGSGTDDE
Sequence of von Hippel-Lindau disease tumor suppressor/SWI/SNF-related matrix-associated actin-dependent regulator of chromatin subfamily A member 2 (P40337 whole entry): as the sequence (P40337 whole entry) above
Sequence of SWI/SNF-related matrix-associated actin-dependent regulator of chromatin subfamily A member 2 (P51531 whole entry): as the sequence (P51531 whole entry) above

DC50 [1] [nM] | DC50 [2] [nM] | Structure (SMILES) | other results
2 | 0.15 | Cc1ncsc1-c1ccc([C@H](C)NC(=O)[C@@H]2C[C@@H](O)CN2C(=O)[C@@H](n2cc([C@H]3CC[C@H](CN4CCC(c5ccc6c(c5)C5(CCCCC5)c5nc(=O)c7c(Br)cccc7n5-6)CC4)CC3)nn2)C(C)(C)C)cc1 | 
> 1000 | 2 | Cc1ncsc1-c1ccc([C@H](CN2CCC(F)(F)CC2)NC(=O)[C@@H]2C[C@@H](O)CN2C(=O)[C@@H](n2cc([C@H]3CC[C@H](CN4CCC(c5ccc6c(c5)-n5c(nc(=O)c7c(Cl)cccc75)C65CCCCC5)CC4)CC3)nn2)C(C)(C)C)cc1 | 
222 | 1 | CC(C)(C)[C@@H](C(=O)N1C[C@H](O)C[C@H]1C(=O)N[C@@H](CN1CCOCC1)c1ccc(-c2ccccc2F)cc1)n1cc([C@H]2CC[C@H](CN3CCC(c4ccc5c(c4)-n4c(nc(=O)c6c(Cl)cccc64)C54CCCCC4)CC3)CC2)nn1 | 
430 | 5 | CC(C)(C)[C@@H](C(=O)N1C[C@H](O)C[C@H]1C(=O)N[C@@H](CN1CCOCC1)c1ccc(-c2ccccc2)cc1)n1cc([C@H]2CC[C@H](CN3CCC(c4ccc5c(c4)-n4c(nc(=O)c6c(Cl)cccc64)C54CCCCC4)CC3)CC2)nn1 | 
> 1000 | 2 | COCCOCCOCCOC[C@H](NC(=O)[C@@H]1C[C@@H](O)CN1C(=O)[C@@H](n1cc([C@H]2CC[C@H](CN3CCC(c4ccc5c(c4)-n4c(nc(=O)c6c(Cl)cccc64)C54CCCCC4)CC3)CC2)nn1)C(C)(C)C)c1ccc(-c2scnc2C)cc1 | 
> 1000 | 16 | CC(C)(C)[C@@H](C(=O)N1C[C@H](O)C[C@H]1C(=O)N[C@@H](CN1CCOCC1)c1ccc(-c2ocnc2C(F)(F)F)cc1)n1cc([C@H]2CC[C@H](CN3CCC(c4ccc5c(c4)-n4c(nc(=O)c6c(Cl)cccc64)C54CCCCC4)CC3)CC2)nn1 | 
> 1000 | 228 | Cc1ncsc1-c1ccc([C@H](CN2CC(C(=O)O)C2)NC(=O)[C@@H]2C[C@@H](O)CN2C(=O)[C@@H](n2cc([C@H]3CC[C@H](CN4CCC(c5ccc6c(c5)-n5c(nc(=O)c7c(Cl)cccc75)C65CCCCC5)CC4)CC3)nn2)C(C)(C)C)cc1 | 
575 | 1 | Cc1nc(C)c(-c2ccc([C@H](CN3CCOCC3)NC(=O)[C@@H]3C[C@@H](O)CN3C(=O)[C@@H](n3cc([C@H]4CC[C@H](CN5CCC(c6ccc7c(c6)-n6c(nc(=O)c8c(Cl)cccc86)C76CCCCC6)CC5)CC4)nn3)C(C)(C)C)cc2)o1 | 
 |  | Cc1ncsc1-c1ccc([C@H](C)NC(=O)[C@H]2C[C@@H](O)CN2C(=O)[C@@H](c2cc(N3CCC(CN4CCC(O[C@H]5C[C@H](Oc6cc(N7C8CCC7CN(c7cc(-c9ccccc9O)nnc7N)C8)ccn6)C5)CC4)CC3)no2)C(C)C)cc1 | DC50 [3]: 0.04 nM; DC50 [4]: 1.1 nM
 |  | Cc1ncsc1-c1ccc([C@H](CC[C@H](C)CCN2CCC(c3ccc4c(c3)n(C3CCCC3)c3nc(=O)c5c(Br)cccc5n43)CC2)NC(=O)[C@@H]2C[C@@H](O)CN2C(=O)[C@@H](NC(=O)C2(F)CC2)C(C)(C)C)cc1 | Ratio (Homo sapiens [5]): 32; Emax (Homo sapiens [6]): 81%; Emax (Homo sapiens [7]): 67%; DC50 [3]: 1 nM; DC50 [4]: 32 nM
> 1000 | 5 | Cc1ncsc1-c1ccc([C@H](CN2CCS(=O)(=O)CC2)NC(=O)[C@@H]2C[C@@H](O)CN2C(=O)[C@@H](n2cc([C@H]3CC[C@H](CN4CCC(c5ccc6c(c5)-n5c(nc(=O)c7c(Cl)cccc75)C65CCCCC5)CC4)CC3)nn2)C(C)(C)C)cc1 | 
> 1000 | 3 | COCCOCCOCCOCCOC[C@H](NC(=O)[C@@H]1C[C@@H](O)CN1C(=O)[C@@H](n1cc([C@H]2CC[C@H](CN3CCC(c4ccc5c(c4)-n4c(nc(=O)c6c(Cl)cccc64)C54CCCCC4)CC3)CC2)nn1)C(C)(C)C)c1ccc(-c2scnc2C)cc1 | 
> 1000 | 0.4 | COCCOCCOC[C@H](NC(=O)[C@@H]1C[C@@H](O)CN1C(=O)[C@@H](n1cc([C@H]2CC[C@H](CN3CCC(c4ccc5c(c4)-n4c(nc(=O)c6c(Cl)cccc64)C54CCCCC4)CC3)CC2)nn1)C(C)(C)C)c1ccc(-c2scnc2C)cc1 | concentration at 24 h [8]: 5.5 ng/mL; concentration at 96 h [9]: 53 ng/mL; concentration at 24 h [10]: 113 ng/mL; concentration at 96 h [11]: 4.2 ng/mL
789 | 8 | Cc1ccccc1-c1ccc([C@H](CN2CCOCC2)NC(=O)[C@@H]2C[C@@H](O)CN2C(=O)[C@@H](n2cc([C@H]3CC[C@H](CN4CCC(c5ccc6c(c5)-n5c(nc(=O)c7c(Cl)cccc75)C65CCCCC5)CC4)CC3)nn2)C(C)(C)C)cc1 | 
62 | 1 | Cc1ncsc1-c1ccc([C@H](CN2CCN(C)CC2)NC(=O)[C@@H]2C[C@@H](O)CN2C(=O)[C@@H](n2cc([C@H]3CC[C@H](CN4CCC(c5ccc6c(c5)-n5c(nc(=O)c7c(Cl)cccc75)C65CCCCC5)CC4)CC3)nn2)C(C)(C)C)cc1 | 
> 1000 | 1 | Cc1ncsc1-c1ccc([C@H](CN2CC(C)(F)C2)NC(=O)[C@@H]2C[C@@H](O)CN2C(=O)[C@@H](n2cc([C@H]3CC[C@H](CN4CCC(c5ccc6c(c5)-n5c(nc(=O)c7c(Cl)cccc75)C65CCCCC5)CC4)CC3)nn2)C(C)(C)C)cc1 | 
> 1000 | 1 | Cc1ncoc1-c1ccc([C@H](CN2CCOCC2)NC(=O)[C@@H]2C[C@@H](O)CN2C(=O)[C@@H](n2cc([C@H]3CC[C@H](CN4CCC(c5ccc6c(c5)-n5c(nc(=O)c7c(Cl)cccc75)C65CCCCC5)CC4)CC3)nn2)C(C)(C)C)cc1 | 
> 1000 | 111 | Cc1ncsc1-c1ccc([C@H](CN2CCC(C(=O)O)CC2)NC(=O)[C@@H]2C[C@@H](O)CN2C(=O)[C@@H](n2cc([C@H]3CC[C@H](CN4CCC(c5ccc6c(c5)-n5c(nc(=O)c7c(Cl)cccc75)C65CCCCC5)CC4)CC3)nn2)C(C)(C)C)cc1 | 
> 1000 | 1 | Cc1ncsc1-c1ccc([C@H](CN2CCOCC2)NC(=O)[C@@H]2C[C@@H](O)CN2C(=O)[C@@H](n2cc([C@H]3CC[C@H](CN4CCC(c5ccc6c(c5)-n5c(nc(=O)c7c(Cl)cccc75)C65CCCCC5)CC4)CC3)nn2)C(C)(C)O)cc1 | 
 |  | O=c1nc2n(c3cccc(Cl)c13)-c1ccc(C3CCNCC3)cc1C21CCCCC1 | IC50 [12]: 43 nM; IC50 [13]: 58 nM
115 | 0.3 | Cc1ncsc1-c1ccc([C@H](C)NC(=O)[C@@H]2C[C@@H](O)CN2C(=O)[C@@H](n2cc([C@H]3CC[C@H](CN4CCC(c5ccc6c(c5)-n5c(nc(=O)c7c(Cl)cccc75)C65CCCCC5)CC4)CC3)nn2)C(C)(C)C)cc1 | 
> 1000 | 1 | Cc1nc(C)c(-c2ccc([C@H](CN3CCOCC3)NC(=O)[C@@H]3C[C@@H](O)CN3C(=O)[C@@H](n3cc([C@H]4CC[C@H](CN5CCC(c6ccc7c(c6)-n6c(nc(=O)c8c(Cl)cccc86)C76CCCCC6)CC5)CC4)nn3)C(C)(C)C)cc2)s1 | 
 |  | O=c1nc2n(c3cccc(Cl)c13)-c1cc(C3CCNCC3)ccc1C21CCCCC1 | IC50 [12]: 66 nM; IC50 [13]: 83 nM
3 | 0.29 | Cc1ncsc1-c1ccc([C@H](C)NC(=O)[C@@H]2C[C@@H](O)CN2C(=O)[C@@H](n2cc([C@H]3CC[C@H](CN4CCC(c5ccc6c(c5)C5(CCCCC5)c5nc(=O)c7c(Cl)cccc7n5-6)CC4)CC3)nn2)C(C)(C)C)cc1 | 
 |  | Cc1ncsc1-c1ccc(CNC(=O)[C@@H]2C[C@@H](O)CN2C(=O)[C@@H](NC(=O)C2(F)CC2)C(C)(C)C)c(OCCOc2ccc(CN3CCN(c4cc(-c5ccccc5O)nnc4N)CC3)cc2)c1 | Ratio (Homo sapiens [5]): 2; Emax (Homo sapiens [6]): > 95%; Emax (Homo sapiens [7]): > 95%; DC50 [3]: 6 nM; DC50 [4]: 11 nM
> 1000 | 2 | Cc1ncsc1-c1ccc([C@H](CN2CC(C)(O)C2)NC(=O)[C@@H]2C[C@@H](O)CN2C(=O)[C@@H](n2cc([C@H]3CC[C@H](CN4CCC(c5ccc6c(c5)-n5c(nc(=O)c7c(Cl)cccc75)C65CCCCC5)CC4)CC3)nn2)C(C)(C)C)cc1 | 
> 1000 | 0.4 | COCCOC[C@H](NC(=O)[C@@H]1C[C@@H](O)CN1C(=O)[C@@H](n1cc([C@H]2CC[C@H](CN3CCC(c4ccc5c(c4)-n4c(nc(=O)c6c(Cl)cccc64)C54CCCCC4)CC3)CC2)nn1)C(C)(C)C)c1ccc(-c2scnc2C)cc1 | concentration at 24 h [8]: 13 ng/mL; concentration at 96 h [9]: 79 ng/mL; concentration at 24 h [10]: 255 ng/mL; concentration at 96 h [11]: 8.3 ng/mL
22 | 0.24 | Cc1ncsc1-c1ccc([C@H](C)NC(=O)[C@@H]2C[C@@H](O)CN2C(=O)[C@@H](n2cc([C@H]3CC[C@H](CN4CCC(c5ccc6c(c5)-n5c(nc(=O)c7c(Br)cccc75)C65CCCCC5)CC4)CC3)nn2)C(C)(C)C)cc1 | 

Structure (SMILES) | DC50 [1] [nM] | DC50 [2] [nM] | other results
Cc1ncsc1-c1ccc([C@H](C)NC(=O)[C@@H]2C[C@@H](O)CN2C(=O)[C@@H](NC(=O)[C@H]2CC[C@H](CN3CCC(c4ccc5c(c4)-n4c(nc(=O)c6c(Cl)cccc64)C54CCCCC4)CC3)CC2)C(C)(C)C)cc1 |  | 8 | 
Cc1ncsc1-c1ccc([C@H](C)NC(=O)[C@@H]2C[C@@H](O)CN2C(=O)[C@@H](NC(=O)[C@H]2CC[C@H](CN3CCC(c4ccc5c(c4)C4(CCCCC4)c4nc(=O)c6c(Cl)cccc6n4-5)CC3)CC2)C(C)(C)C)cc1 |  | 6.3 | 
